Results on three compounds are retold here after patent publication US20150038545A1, “HYDROXYPHENYL PYRROLE COMPOUNDS CONTAINING AN HYDROXAMIC ACID AS HDAC INHIBITORS AND MEDICINAL APPLICATIONS THEREOF” (UNIVERSIDAD DEL PAÍS VASCO, priority 2011, published 2015).

The IC50 is the concentration that inhibits the measured activity by half.

The target of one assay is T1, Human HDAC11 (Homo sapiens, UniProt Q96DB2).
T1 construct: GST (N); purchased BioMol SE-560
T1 sequence (Q96DB2 1-347): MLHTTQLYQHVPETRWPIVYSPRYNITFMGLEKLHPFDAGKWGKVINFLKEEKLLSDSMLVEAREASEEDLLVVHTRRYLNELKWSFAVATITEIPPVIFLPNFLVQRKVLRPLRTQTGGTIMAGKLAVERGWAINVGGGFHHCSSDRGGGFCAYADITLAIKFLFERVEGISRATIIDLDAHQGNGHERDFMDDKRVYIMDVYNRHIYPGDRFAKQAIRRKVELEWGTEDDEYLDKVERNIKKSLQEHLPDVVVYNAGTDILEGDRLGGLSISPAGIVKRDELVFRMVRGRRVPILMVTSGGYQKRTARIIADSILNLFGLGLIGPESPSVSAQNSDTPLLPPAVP
Briefly: In vitro HDAC11 inhibition, fluorogenic peptide assay. The following applies: for IC50: read-out: IC50 (nM) of enzyme activity HDAC11. In kind it is biochemical. On the procedure:
(§1) All HDAC assays were performed using acetylated AMC-labeled peptide substrate: • Substrate for isoforms HDAC1, 2, 3, 4, 5, 6, 7, 9, 10, 11 and HeLa nuclear extract assays: Acetylated fluorogenic peptide from p53 residues 379-382 (RHKKAc) (BioMol. Cat. # KI-104). • Substrate for HDAC8 assays: Acetylated fluorogenic peptide from p53 residues 379-382 (RHKAcKAc) (BioMol. Cat. # KI-178).
(§2) Enzymes: • HDAC1 assay: 75 nM Human HDAC1 (GenBank Accession No. NM_004964): Full length with C-terminal GST tag, MW=79.9 kDa, expressed by baculovirus expression system in Sf9 cells (BioMol. Cat. # SE-456). • HDAC2 assay: 5 nM Human HDAC2 (GenBank Accession No. Q92769): Full length with C-terminal His tag, MW=60 kDa, expressed by baculovirus expression system in Sf9 cells (BioMol. Cat. # SE-500). • HDAC3 assay: 2.3 nM Human HDAC3/NcoR2 (GenBank Accession No. NM_003883 for HDAC3, GenBank Accession No.NM_006312 for NcoR2): Complex of human HDAC3, full length with C-terminal His tag, MW=49.7 kDa, and human NCOR2, N-terminal GST tag, MW=39 kDa, co-expressed in baculovirus expression system (BioMol. Cat. # SE-507). • HDAC4 assay: 266 nM Human HDAC4 (GenBank Accession No. NM_006037): Amino acids 627-1085 with N-terminal GST tag, MW=75.2 kDa, expressed in baculovirus expression system (BioMol, Hamburg, Germany). • HDAC5 assay: 588 nM Human HDAC5 (GenBank Accession No. NM_001015053): Full length with Nterminal GST tag, MW=150 kDa, expressed by baculovirus expression system in Sf9 cells (BioMol, Hamburg, Germany). • HDAC6 assay: 13 nM Human HDAC6 (GenBank Accession No. BC069243): Full length with N-terminal GST tag, MW=159 kDa, expressed by baculovirus expression system in Sf9 cells (BioMol. Cat. # SE-508). • HDAC7 assay: 962 nM Human HDAC7 (GenBank Accession No. AY302468): Amino acids 518-end with N-terminal GST tag, MW=78 kDa, expressed in baculovirus expression system (BioMol, Hamburg, Germany). • HDAC8 assay: 119 nM Human HDAC8 (GenBank Accession No. NM018486): Full length, MW=42 kDa, expressed in an E. coli expression system (BioMol. […]
(§3) The reactions were carried out in a 96-well microplate for fluorometry in a 50 μl reaction volume. […] The reaction was allowed to develop for 45 minutes at 30° C. with 5% CO2; then the fluorescent signal was measured with an excitation wavelength at 360 nm and an emission wavelength at 460 nm in a microplate-reading fluorometer (GeminiXS; Molecular Devices, Sunnyvale, Calif.). […] IC50 was calculated by fitting the experimental data to a dose-response curve. […]

In a further assay the target is T2, Human HDAC7 (Homo sapiens, UniProt Q8WUI4).
T2 construct: Amino acids 518-end with N-terminal GST tag, MW=78 kDa; GST (N); purchased BioMol, Hamburg, Germany
T2 sequence (Q8WUI4 518-952 limits assumed): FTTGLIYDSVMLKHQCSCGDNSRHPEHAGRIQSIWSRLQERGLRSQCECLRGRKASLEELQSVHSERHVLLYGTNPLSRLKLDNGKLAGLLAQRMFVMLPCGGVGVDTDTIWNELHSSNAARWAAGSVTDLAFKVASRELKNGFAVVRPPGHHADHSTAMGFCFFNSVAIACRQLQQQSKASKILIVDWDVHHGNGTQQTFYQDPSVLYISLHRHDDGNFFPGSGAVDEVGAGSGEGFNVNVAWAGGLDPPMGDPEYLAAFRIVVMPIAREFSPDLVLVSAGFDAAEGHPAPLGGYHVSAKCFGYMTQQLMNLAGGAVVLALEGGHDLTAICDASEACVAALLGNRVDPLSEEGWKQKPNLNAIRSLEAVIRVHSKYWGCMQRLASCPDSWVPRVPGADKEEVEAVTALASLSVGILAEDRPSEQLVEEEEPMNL
Briefly: In vitro HDAC7 inhibition, fluorogenic peptide assay. In kind it is biochemical. The following applies: for IC50: read-out: IC50 (nM) of enzyme activity HDAC7. As to the method: as §1, §2, §3

As to `O=C(CCCCCNC(=O)c1[nH]c(-c2ccc(O)cc2)cc1-c1ccoc1)NO` [Example 5, 3-(3-furyl)-N-(5-(hydroxycarbamoyl)pentyl)-5-(4-hydroxy-phenyl)-1H-pyrrole-2-carboxamide], the IC50 came to 18 nM on Human HDAC11 and 72 nM on Human HDAC7.
In the case of `COc1ccc(-c2cc(-c3ccccc3)[nH]c2C(=O)NCCCCCC(=O)NO)cc1` [Compound A, N-[6-(hydroxyamino)-6-oxohexyl]-3-(4-methoxyphenyl)-5-phenyl-1H-pyrrole-2-carboxamide, reference compound], on Human HDAC11 (IC50 HDAC11/IC50 HDAC6), the “Selectivity against HDAC6 (IC50 HDACx/IC50 HDAC6) HDAC11” value is on record as 34. In addition, the IC50 on Human HDAC11 was 680 nM; on Human HDAC7 it was 1410 nM. In addition, at Human HDAC7 (IC50 HDAC7/IC50 HDAC6), the “Selectivity against HDAC6 (IC50 HDACx/IC50 HDAC6) HDAC7” value was 70.3.
Regarding `O=C(CCCCCNC(=O)c1[nH]c(-c2ccc(O)cc2)cc1-c1ccsc1)NO` [Example 6, N-(5-(hydroxycarbamoyl)pentyl)-5-(4-hydroxyphenyl)-3-(3-thienyl)-1H-pyrrole-2-carboxamide], the IC50 at Human HDAC11 came to 55 nM; at Human HDAC7, 318 nM.
